ChEMBL document CHEMBL1136238, “Synthesis and PDF inhibitory activities of novel benzothiazolylidenehydroxamic acid derivatives” (Bioorg Med Chem Lett, 2003)
Values after ≈ are worked out from the molar mass of the structure shown.

Assays:
[1] = target: Peptide deformylase (Escherichia coli) (UniProt P0A6K3); test: In vitro inhibitory concentration required against peptide deformylase (PDF)
Escherichia coli = test: In vitro minimum inhibitory concentration required against Escherichia coli ATCC 25922; format: functional
Staphylococcus aureus = test: In vitro minimum inhibitory concentration required against Staphylococcus aureus ATCC 10390; format: functional
Pseudomonas aeruginosa = test: In vitro minimum inhibitory concentration required against Pseudomonas aeruginosa ATCC 9027; format: functional

Chain of Peptide deformylase (Escherichia coli) (P0A6K3 whole entry, looked up): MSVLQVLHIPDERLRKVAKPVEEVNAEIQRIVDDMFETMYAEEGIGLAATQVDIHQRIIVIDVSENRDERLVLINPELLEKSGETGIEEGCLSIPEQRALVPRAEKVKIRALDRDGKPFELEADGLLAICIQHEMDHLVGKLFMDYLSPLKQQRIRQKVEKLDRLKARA

Compound	IC50 [1] [µM]	MIC (Escherichia coli) [µg/mL]	MIC (Staphylococcus aureus) [µg/mL]	MIC (Pseudomonas aeruginosa) [µg/mL]
CCN1/C(=C/C(=O)NO)Sc2ccccc21	> 100	> 100	> 100	> 100
CCCCN1/C(=C/C(=O)O)Sc2ccccc21	> 100	> 100	> 100	> 100
CCCCN1/C(=C/C(=O)NO)S(=O)(=O)c2ccccc21	> 100	> 100	> 100	> 100
CCCCN1/C(=C/C(=O)NO)Sc2ccccc21		> 100		100 (≈ 378 µM)
CCCCCN1/C(=C/C(=O)NO)Sc2ccccc21	9.91	> 100	100 (≈ 359 µM)	100 (≈ 359 µM)
CCCN1/C(=C/C(=O)NO)Sc2ccccc21	8.39	> 100	10 (≈ 39.9 µM)	100 (≈ 399 µM)
CCCCC[C@H](CC(=O)NO)C(=O)N[C@H](C(=O)N1CCC[C@H]1CO)C(C)C [ACTINONIN]		50 (≈ 130 µM)	3 (≈ 7.78 µM)	100 (≈ 259 µM)
